Measured values reported in the supplement of paper PMC10721915.
± gives the standard deviation of the averaged measurements.

Experiments:
Experiment in all cases: relative cell growth vs untreated control (GI, NCI-DTP normalisation with time-zero) (fraction of control growth); higher = more growth / less inhibition
Details in all cases: concentration of partner 0 M, treatment time: 120 h
A204 = system: A204
Description: (§1)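 Cancer cell lines in 96-well plates were treated 48 h after seeding with M4076 (ATM inhibitor) and berzosertib (ATR inhibitor), alone or mixed, in 4-fold dilutions for 120 h. Protein was read by sulforhodamine B staining, background-subtracted and normalised NCI-DTP style to untreated control growth. Rows with one concentration equal to 0 are monotherapy.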

ASPC1 = system: ASPC1
Description: as §1

HT1080 = system: HT1080
Description: as §1

HT29 = system: HT29
Description: as §1

IGROV1 = system: IGROV1
Description: as §1

LOVO = system: LOVO
Description: as §1

MDAMB436 = system: MDAMB436
Description: as §1

MHHES1 = system: MHHES1
Description: as §1

RDES = system: RDES
Description: as §1

SW620 = system: SW620
Description: as §1

CNCc1ccc(-c2cc(-c3nc(-c4ccc(S(=O)(=O)C(C)C)cc4)cnc3N)on2)cc1 [berzosertib] + COc1cc2ncc3c(c2cc1-c1cn(C)nc1C)n(-c1c(F)cncc1OC)c(=O)n3C [M4076]
relative cell growth
Details | A204 | ASPC1 | HT29 | HT1080 | IGROV1 | LOVO | MDAMB436 | MHHES1 | RDES | SW620
concentration of first compound 0.0195 µM | 1.15 ± 0.11 | 1.3 ± 0.23 | 1.22 ± 0.25 | 2.08 ± 0.29 | 1.15 ± 0.21 | 1.07 ± 0.22 | 1.03 ± 0.13 | 1.26 ± 0.15 | 1.15 ± 0.026 | 1.1 ± 0.15
concentration of first compound 0.0781 µM | 1.06 ± 0.1 | 1.07 ± 0.19 | 0.613 ± 0.13 | 2.13 ± 0.3 | 1.01 ± 0.18 | 0.826 ± 0.17 | 1.13 ± 0.14 | 1.21 ± 0.15 | 1.14 ± 0.026 | 1.07 ± 0.15
concentration of first compound 0.2 µM | 0.623 | 0.344 | 0.113 | 0.626 | 0.468 | 0.211 | 0.673 | 0.599 | 1.01 | 0.795
concentration of first compound 0.313 µM | 0.583 ± 0.056 | 0.0569 ± 0.01 | -0.0285 ± 0.0059 | 0.0933 ± 0.013 | 0.129 ± 0.023 | 0.0258 ± 0.0054 | 0.386 ± 0.049 | 0.436 ± 0.052 | 0.873 ± 0.02 | 0.494 ± 0.067
concentration of first compound 1.25 µM | -0.0148 ± 0.0015 | -0.0955 ± 0.017 | -0.0598 ± 0.012 | -0.162 ± 0.023 | -0.0355 ± 0.0062 | -0.0498 ± 0.011 | 0.0232 ± 0.0032 | 0.0564 ± 0.0069 | 0.254 ± 0.0058 | 0.087 ± 0.012
concentration of first compound 5 µM | -0.0897 ± 0.0087 | -0.077 ± 0.013 | -0.0555 ± 0.011 | -0.228 ± 0.032 | -0.0657 ± 0.012 | -0.0599 ± 0.013 | -0.0352 ± 0.0043 | -0.0244 ± 0.0028 | -0.0925 ± 0.0021 | -0.01 ± 0.0014
